One experiment concerns BMP-2 promoter. Briefly: BMP2 promoter assay (luciferase reporter). The experiment is classed as cell-based, murine. The settings on record: summary of Table 1.
The test system of experiment [1] is MMP9 (type IV collagenase). Briefly: MMP9 (type IV collagenase) protein expression, keratinocyte/fibroblast co-culture stimulated with IL-1B. The experiment is classed as cell-based. Particulars: IL1B 10 ng/ml alone (stimulus); untreated = 1.0. How it is done: Keratinocytes and fibroblasts were co-cultured in DMEM containing 0.5% BSA. Co-cultures were exposed to various concentrations of punicalagins (ranging from 0.1%-10%) extracted from pomegranates. Specifically, the ability of the pomegranate extracts to inhibit type IV collagenase protein (matrix metalloproteinase-9/MMP9) expression at concentrations of 1.0 μg/ml, 10 μg/ml, and 100 μg/ml were tested. Following exposure to the pomegranate extracts, the co-culture cells were stimulated with 10 ng/ml of IL-1B for 18 hours. Following stimulation with IL-1B for 18 hours, and MMP9 concentration was determined in the media as shown below in Table 8.

The next experiment has as its system RANK-L gene expression. Briefly: RANK-L gene expression (qPCR, IL-1b stimulated MG63 cells). The class given is cell-based, human. The settings on record: IL1B 3 ng/ml alone (stimulus). The procedure: Punicalagin test samples are extracted from pomegranates, including from pomegranate peels, skins, fleshy fruit, and seeds using 100% DMSO at 100 mg/ml. Particulate matter in the extraction is not removed. The punicalagin test samples are diluted in MEM without phenol red (estrogenic) and 0.1% FBS to lower background signaling to ten times the final concentrations. Final DMSO concentrations are kept below 0.2% and are kept constant during treatments. DMSO solvent control is used in the untreated group.
MG63 cells (ATCC # […]), a human-derived osteosarcoma cell line, are plated at 200,000 cells per well in a 12 well plate with phenol red free MEM at 10% FBS. The next day the media is changed to phenol red free MEM at 0.1% FBS. The cells are incubated for four hours and then treated with punicalagin test samples at concentrations of 1, 10, and 100 μg/ml.
After four hours of treatment, IL-1b (Calbiochem (catalog # 407615), stock solution at 10 μg/ml, cat # 407615) are added to a final concentration of 3 ng/mL. […]
After 16 hours the cells are lysed and the RNA is extracted from the cells with the RNasy purification kit (Qiagen). RNA is reverse transcribed to cDNA and quantified by qPCR using 2-step qRT-PCR reagents (Invitrogen), and 4 μL of purified RNA. […]
RANK-L and GAPDH gene expression Ct data are obtained. RNA is quantified with adjustments for GAPDH expression. […]

Another experiment relates to RANK-L. Briefly: Production/release of RANK-L protein (ELISA, IL-1b stimulated MG-63 cells). The class given is cell-based. Particulars: Homo sapiens, MG-63, 1 μg/ml. The procedure: Weigh between 150 to 250 mg of each ingredient into a 15 ml conial bottomed tube. […] For solvent control, mix 1.5 ml DMSO, 0.9 ml ethanol, and 0.6 ml water. Vortex thoroughly. Sonicate for 10 minute in water bath, room temperature. Vortex thoroughly again. Dilute ingredient stocks in fresh phenol red-free media. Human osteosarcoma cell line, MG-63 (ATCC# CRL-1427), is maintained in phenol-red containing MEM (as recommended by ATCC) at 37° C. and 5% CO2. Twenty-four hours prior to experimentation, 3×10^5 cells are seeded in 12-well plates in phenol-red free MEM. Spent medium is removed from wells and MG-63 cells (ATCC # CRL-1427) are pretreated with 1, 0.1, 0.01 μg/ml of each test ingredient or 30 ng/ml TGF-beta (+ control) for 4 hours at 37° C., 5% CO2. Stock solution of TGF-beta is 30 μg/ml (from R&D Systems, cat# 100-B-001). After pretreatment incubation period, […] IL-1b (Calbiochem (catalog # 407615), and stock solution at 10 μg/ml, cat # 407615) were added to the cell cultures for 18 hours at 37° C. Supernatant media from the treated and stimulated cells were removed and total RANK-L proteins measured using RANK-L ELISA (in triplicate) as described by manufacturer (from APOTECH, catalog # APO-54N-016-k101). The resulting protein quantity was compared to that of media (null) treated stimulated cells to determine percent decrease in total RANK-L protein.

Consider `O=c1c(O)c(-c2ccc(O)c(O)c2)oc2cc(O)cc(O)c12` [Q, Quercetin], for which, in the experiment with BMP-2 promoter, the “Activation of the BMP-2 promoter (in words)” value is reported as “most potent activators”. Take “IL1B: IL-1b (Calbiochem), stimulus of RANK-L and MMP9 expression”: the “MMP9 expression (fold of untreated)” value in experiment [1] turned out to be 1.65. Further, in the experiment on RANK-L gene expression, the “RANK-L Expression (fold increase)” value was 3.3 ± 0 fold increase. For `CC(C)Oc1ccc2c(=O)c(-c3ccccc3)coc2c1` [I, 7-isopropoxy isoflavone], the inhibition at 1 µg/mL in the experiment with RANK-L was 0.8 ± 0.3%. In addition, in the experiment on BMP-2 promoter, the “Activation of the BMP-2 promoter (in words)” value is on record as “most potent activators”.

The values are drawn from US20080199546A1, “Anti-resorptive and bone building dietary supplements and methods of use” (priority 2006, published 2008).
